Among the data in patent publication US20260183369A1, “CHEMERIN-CONTAINING FORMULATION FOR TREATING DRY EYE DISEASE” (OKYO Pharma Limited, priority 2022, published 2026) are solubility values, retold here.

Each structure is given as a SMILES string. Like-named read-outs stand apart in the source and are kept apart here. Square brackets hold non-standard residues; d marks the D form. Peptide text beside a SMILES is read from it. * marks the point of attachment. PEG8 = NCCOCCOCCOCCOCCOCCOCCOCCOCCC(=O)O; Palmitoyl = CCCCCCCCCCCCCCCC(=O)*; Tic = O=C(O)[C@@H]1Cc2ccccc2CN1

This data set can be described thus: solubility and pH stability of OK-101 in sodium phosphate buffer. In kind it is physicochemical. The conditions noted are these: read-out: concentration of OK-101 observed (solubility). The protocol:
The solubility and pH stability of OK-101 at a target concentration of 0.05% w/v, was tested in either 50 mM or 100 mM sodium phosphate buffer. For each concentration of sodium phosphate buffer, the solubility and pH stability were determined in three separate buffer batches, each with a different starting pH.

For the molecule `CCCCCCCCCCCCCCCC(=O)NCCOCCOCCOCCOCCOCCOCCOCCOCCC(=O)NCC(=O)NCC(=O)N[C@H](Cc1ccc(O)cc1)C(=O)N[C@@H](Cc1ccccc1)C(=O)N[C@@H](CC(C)C)C(=O)N1CCC[C@H]1C(=O)N[C@H](CO)C(=O)N[C@@H](CCC(N)=O)C(=O)N[C@@H](Cc1ccccc1)C(=O)N[C@H](C)C(=O)N1Cc2ccccc2C[C@H]1C(=O)N[C@@H](CO)C(=O)O` [OK-101] ({Palmitoyl-PEG8}-GG[dY]FLP[dS]QF[dA][Tic]S-OH), the solubility is > 25 mg/mL (three batches of 50 mM sodium phosphate buffer) and > 30 mg/mL (three batches of 100 mM sodium phosphate buffer).
